Laboratory results reported in patent US20070276022A1, “Optically Active Carboxamides” (priority 2003, published 2007).

tested on: Alternaria solani; experiment: Alternaria test (tomato)/protective; format: in vivo; conditions: protective, 50 g/ha, evaluation 3 days after inoculation
Method: (§1) For the production of an appropriate active compound preparation 1 part by weight of active compound is mixed with the given amount of solvent and emulsifier and the concentrate is diluted to the desired concentration with water.
(§2) For the investigation of the protective activity young plants are sprayed with the active compound preparation in the amount specified. After drying of the spray coating the plants are inoculated with an aqueous spore suspension of Alternaria solani. The plants are then placed in an incubator at ca. 20° C. and a relative humidity of 100%.
Evaluation is carried out 3 days after the inoculation. A level of activity of 0% corresponds the level of activity of the control, whereas a level of activity of 100% means that no infestation is observed.

Row | SMILES | Level of activity in % [%]
1 | CC(C)C[C@H](C)c1ccccc1NC(=O)c1cn(C)cc1C(F)(F)F [drawing 79] | 83
2 | CC(C)C[C@@H](C)c1ccccc1NC(=O)c1cn(C)cc1C(F)(F)F [drawing 80] | 30

tested on: Venturia inaequalis; experiment: Venturia test (apple)/protective; format: in vivo; conditions: protective, 3.125 g/ha, evaluation 10 days after inoculation
Method: as §1
as §2, with “conidial” for “spore”, “the apple scab pathogen Venturia inaequalis” for “Alternaria solani. The plants are”, “left for 1 day” for “placed”
The plants are then placed in a greenhouse at ca. 21° C. and a relative humidity of ca. 90%.
(§3) Evaluation is carried out 10 days after the inoculation. A level of activity of 0% corresponds to the level of activity of the control, whereas a level of activity of 100% means that no infestation is observed.

Row | SMILES | Level of activity in % [%]
3 | CC(C)C[C@H](C)c1sccc1NC(=O)c1cn(C)nc1C(F)(F)F [drawing 65] | 100
4 | CC(C)C[C@@H](C)c1sccc1NC(=O)c1cn(C)nc1C(F)(F)F [drawing 66] | 7

same assay, conditions: protective, 25 g/ha, evaluation 10 days after inoculation

Row | SMILES | Level of activity in % [%]
5 | CC(C)C[C@H](C)c1ccccc1NC(=O)c1ccccc1I [drawing 63] | 100
6 | Cc1nn(C)c(F)c1C(=O)Nc1ccccc1[C@H](C)CC(C)(C)C [drawing 60] | 0
7 | CC(C)C[C@@H](C)c1ccccc1NC(=O)c1ccccc1I [drawing 64] | 16
8 | CC(C)C[C@H](C)c1ccccc1NC(=O)c1ccccc1C(F)(F)F [drawing 61] | 100
9 | CC(C)C[C@@H](C)c1ccccc1NC(=O)c1ccccc1C(F)(F)F [drawing 62] | 0
10 | Cc1nn(C)c(F)c1C(=O)Nc1ccccc1[C@@H](C)CC(C)(C)C [drawing 59] | 100
11 | Cc1nn(C)c(F)c1C(=O)Nc1ccccc1[C@H](C)CC(C)C [drawing 58] | 21
12 | Cc1nn(C)c(F)c1C(=O)Nc1ccccc1[C@@H](C)CC(C)C [drawing 57] | 100

same assay, conditions: protective, 50 g/ha, evaluation 10 days after inoculation

Row | SMILES | Level of activity in % [%]
13 | CC(C)C[C@@H](C)c1ccccc1NC(=O)c1cn(C)cc1C(F)(F)F [drawing 68] | 20
14 | CC(C)C[C@H](C)c1ccccc1NC(=O)c1cn(C)cc1C(F)(F)F [drawing 67] | 100

tested on: Botrytis cinera; experiment: Botrytis test (bean)/protective; format: in vivo; conditions: protective, 62.5 g/ha, evaluation 2 days after inoculation
Method: as §1
For the investigation the protective activity young plants are sprayed with the active compound preparation in the amount specified. After drying of the spray coating 2 small pieces of agar coated with Botrytis cinera are placed on each leaf. The inoculated plants are then placed in a darkened room at ca 20° C. and a relative humidity of 100%.
The size of the infestation spots on the leaves are evaluated 2 days after the inoculation. A level of activity of 0% corresponds to the level of activity of the control, whereas a level of activity of 100% means that no infestation is observed.

Row | SMILES | Level of activity in % [%]
15 | CC(C)C[C@H](C)c1ccccc1NC(=O)c1cn(C)cc1C(F)(F)F [drawing 77] | 100
16 | CC(C)C[C@@H](C)c1ccccc1NC(=O)c1cn(C)cc1C(F)(F)F [drawing 78] | 50

same assay, conditions: protective, 250 g/ha, evaluation 2 days after inoculation

Row | SMILES | Level of activity in % [%]
17 | Cc1nn(C)c(F)c1C(=O)Nc1ccccc1[C@@H](C)CC(C)(C)C [drawing 71] | 100
18 | CC(C)C[C@@H](C)c1ccccc1NC(=O)c1ccccc1C(F)(F)F [drawing 74] | 18
19 | CC(C)C[C@@H](C)c1ccccc1NC(=O)c1ccccc1I [drawing 76] | 0
20 | CC(C)C[C@H](C)c1ccccc1NC(=O)c1ccccc1I [drawing 75] | 86
21 | CC(C)C[C@H](C)c1ccccc1NC(=O)c1ccccc1C(F)(F)F [drawing 73] | 90
22 | Cc1nn(C)c(F)c1C(=O)Nc1ccccc1[C@@H](C)CC(C)C [drawing 69] | 100
23 | Cc1nn(C)c(F)c1C(=O)Nc1ccccc1[C@H](C)CC(C)C [drawing 70] | 29
24 | Cc1nn(C)c(F)c1C(=O)Nc1ccccc1[C@H](C)CC(C)(C)C [drawing 72] | 14

tested on: Podosphaera leucotricha; experiment: Podosphaera test (apple)/protective; format: in vivo; conditions: protective, 12.5 g/ha, evaluation 10 days after inoculation
Method: as §1
(§4) For the investigation for the protective activity young plants are sprayed with the active compound preparation in the amount specified. After drying of the spray coating the plants are inoculated with an aqueous spore suspension of the apple mildew pathogen Podosphaera leucotricha. The plants are then placed in a greenhouse at ca. 23° C. and a relative humidity of ca. 70%.
as §3

Row | SMILES | Level of activity in % [%]
25 | CC(C)C[C@@H](C)c1ccccc1NC(=O)c1cn(C)cc1C(F)(F)F [drawing 42] | 28
26 | CC(C)C[C@H](C)c1ccccc1NC(=O)c1cn(C)cc1C(F)(F)F [drawing 41] | 98

same assay, conditions: protective, 50 g/ha, evaluation 10 days after inoculation

Row | SMILES | Level of activity in % [%]
27 | CC(C)C[C@@H](C)c1ccccc1NC(=O)c1ccccc1C(F)(F)F [drawing 40] | 20
28 | CC(C)C[C@H](C)c1ccccc1NC(=O)c1ccccc1C(F)(F)F [drawing 39] | 100

tested on: Sphaerotheca fuliginea; experiment: Sphaerotheca test (cucumber)/protective; format: in vivo; conditions: protective, 3.125 g/ha, evaluation 7 days after inoculation
Method: as §1
as §4, with “of” for “for”, “young cucumber” for “young”, “Sphaerotheca fuliginea.” for “the apple mildew pathogen Podosphaera leucotricha.”
Evaluation is carried out 7 days after the inoculation. A level of activity of 0% corresponds to the level of activity of the control, whereas a level of activity of 100% means that no infestation is observed.

Row | SMILES | Level of activity in % [%]
29 | CC(C)C[C@H](C)c1sccc1NC(=O)c1cn(C)nc1C(F)(F)F [drawing 53] | 98
30 | CC(C)C[C@@H](C)c1sccc1NC(=O)c1cn(C)nc1C(F)(F)F [drawing 54] | 35

same assay, conditions: protective, 25 g/ha, evaluation 7 days after inoculation

Row | SMILES | Level of activity in % [%]
31 | Cc1nn(C)c(F)c1C(=O)Nc1ccccc1[C@H](C)CC(C)(C)C [drawing 46] | 0
32 | Cc1nn(C)c(F)c1C(=O)Nc1ccccc1[C@H](C)CC(C)C [drawing 44] | 7
33 | CC(C)C[C@@H](C)c1ccccc1NC(=O)c1ccccc1I [drawing 52] | 15
34 | CC(C)C[C@H](C)c1ccccc1NC(=O)c1ccccc1I [drawing 51] | 85
35 | Cc1nn(C)c(F)c1C(=O)Nc1ccccc1[C@@H](C)CC(C)(C)C [drawing 45] | 94
36 | Cc1nn(C)c(F)c1C(=O)Nc1ccccc1[C@@H](C)CC(C)C [drawing 47] | 96

same assay, conditions: protective, 50 g/ha, evaluation 7 days after inoculation

Row | SMILES | Level of activity in % [%]
37 | CC(C)C[C@@H](C)c1ccccc1NC(=O)c1cn(C)cc1C(F)(F)F [drawing 56] | 23
38 | CC(C)C[C@H](C)c1ccccc1NC(=O)c1cn(C)cc1C(F)(F)F [drawing 55] | 91
